Reference: publication PMC11347546, “A radioligand for in vitro autoradiography of CSF1R in post-mortem CNS tissues” (EJNMMI Research, 2024)
Where “and” joins values, the source holds several entries; their conditions need not be identical. Equal entries are not always repeated. Where two headings read alike, the source gives them in different places. Each block holds one compound with its values, some of them ahead of it.

Columns and labels:
CSF1R [1] = target: T1, CSF1R (Mus musculus, UniProt P09581); test: Ex vivo brain uptake of [^11C]1 in LPS-induced murine model of neuroinflammation, baseline and CPPC blocking; parameters: species or system CD1 mice
T1 construct: from tissue; host or cells: whole brain of male CD1 mice, radiotracer injected in vivo, brains counted ex vivo
T1 sequence (P09581 20-977): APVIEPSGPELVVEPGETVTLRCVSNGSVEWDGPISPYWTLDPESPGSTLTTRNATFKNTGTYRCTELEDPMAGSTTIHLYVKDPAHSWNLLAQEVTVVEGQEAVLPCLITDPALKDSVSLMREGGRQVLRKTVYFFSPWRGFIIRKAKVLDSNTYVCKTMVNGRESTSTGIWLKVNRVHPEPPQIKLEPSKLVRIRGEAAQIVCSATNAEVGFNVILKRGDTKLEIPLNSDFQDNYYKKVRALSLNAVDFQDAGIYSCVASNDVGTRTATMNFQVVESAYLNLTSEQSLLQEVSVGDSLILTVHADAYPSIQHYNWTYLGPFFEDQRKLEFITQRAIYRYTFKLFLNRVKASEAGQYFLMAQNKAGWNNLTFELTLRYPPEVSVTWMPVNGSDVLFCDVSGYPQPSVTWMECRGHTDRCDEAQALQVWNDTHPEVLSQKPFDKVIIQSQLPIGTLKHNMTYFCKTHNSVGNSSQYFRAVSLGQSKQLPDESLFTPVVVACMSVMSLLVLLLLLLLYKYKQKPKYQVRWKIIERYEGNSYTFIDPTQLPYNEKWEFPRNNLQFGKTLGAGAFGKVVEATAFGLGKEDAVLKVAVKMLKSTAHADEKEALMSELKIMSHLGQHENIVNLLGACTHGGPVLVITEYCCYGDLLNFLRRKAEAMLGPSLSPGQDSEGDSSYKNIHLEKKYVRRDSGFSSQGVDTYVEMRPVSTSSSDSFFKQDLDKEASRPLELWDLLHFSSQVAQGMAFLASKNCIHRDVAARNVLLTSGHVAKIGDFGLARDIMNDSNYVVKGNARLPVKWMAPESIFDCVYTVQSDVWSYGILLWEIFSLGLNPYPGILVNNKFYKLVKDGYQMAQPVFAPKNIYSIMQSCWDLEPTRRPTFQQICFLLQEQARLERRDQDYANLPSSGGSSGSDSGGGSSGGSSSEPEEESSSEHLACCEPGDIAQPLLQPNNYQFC
Description: Studies were performed in a murine LPS-induced neuroinflammation model under the conditions described previously. The percentage of the standardized uptake value (%SUV) uptake in the whole brain at […] after injection was corrected for blood radioactivity as SUV^whole brain/SUV^blood = SUV ratio (SUVR) (Fig. 1).
Fig. 1 Brain uptake of CSF1R radiotracer [^11C]1 in control mice (Base); LPS-treated mice (LPS base); and LPS-treated mice, blocking with CSF1R inhibitor (LPS block). The time point was 45 min after the radiotracer injection. The LPS treatment was IP, 10 mg/kg. Data are mean SUVR ± SD (n = 6). […] Statistical analysis: comparison of LPS-baseline versus control or LPS-block, ANOVA
Brain regional distribution of [^11C]1 in neuroinflammation mouse model: The study was performed in the murine LPS-induced neuroinflammation model described previously. […] The LPS (O111:B4, Calbiochem, San Diego, CA) solution in sterile saline (10 mg/kg, 0.2 mL) was administered intraperitoneally and the radiotracer study was performed on the 3rd day thereafter.
The animals were injected IV with 3.7 MBq (0.1 mCi) [^11C]1 [specific radioactivity = 444 GBq/µmol (12 Ci/µmol)] and sacrificed by cervical dislocation at 45 min after the radiotracer injection. The whole brains were removed, dissected on ice and blood samples (0.2-0.5 cc) were taken from heartand their radioactivity content was determined in a γ-counter LKB/Wallac CompuGamma. The outcome variables were calculated as SUVR = SUVwhole brain/SUVblood.

CSF1R [2] = tested on: CSF1R; parameters: method as in PMID 18242992; conditions: read-out: CSF1R functional potency IC50; cited from earlier work
[3] = Ex vivo regional brain distribution of [^11C]1 in control CD1 mice; parameters: species or system CD1 male mice; conditions: for Regional brain uptake: mean ± SD, n = 3
Description: The regional brain uptake of [^11C]1 in control CD1 male mice at three time points after injection of radiotracer is shown in Table 2. […] The uptake in other regions studied here was lower.
Brain regional distribution of [^11C]1 in control mice, baseline: All animal studies were conducted within the guidelines of approved IACUC protocols for mice and non-human primates. Male CD1 mice of four to eight weeks of age, weighing 24-29 g from Charles River Laboratories (Wilmington, MA) were used. […] The brains were removed and dissected on ice. The brain regions (cerebellum, hippocampus, frontal cortex, brain stem and rest of brain) were weighed and their radioactivity content was determined in a γ-counter LKB/Wallac 1283 CompuGamma CS (Bridgeport, CT). The percentage of injected dose per gram of tissue %ID/g tiss was calculated (Table 2).

[4] = Dynamic PET brain uptake in control baboon; assay type: in vivo, Papio anubis baboon; conditions: peak at 30 min after injection
Description: Dynamic PET scan was performed on a male baboon (Papio anubis, 27 kg) using the High Resolution Research Tomograph (CPS Innovations, Knoxville, TN) with an IV injection of 751 MBq (20.3 mCi) [^11C]1 [specific radioactivity: 518 TBq/mmol (14,000 Ci/mmol)]. PET imaging and data analysis and radiometabolite analysis of baboon arterial blood are described in detail in the SI Appendix.
PET images were acquired using a CPS/CTI High Resolution Research Tomograph (HRRT), which has an axial resolution (FWHM) of 2.4 mm, and in plane resolution of 2.4–2.8 mm. The animal was anesthetized and handled as described previously. The 90 min PET data were binned into […]: four 15-s, four 30-s, three 1-min, two 2-min, five 4-min, and twelve 5-min frames. Images were reconstructed using the iterative ordered subset expectation maximization (OS-EM) algorithm (with six iterations and 16 subsets) with correction for radioactive decay, deadtime, attenuation, scatter and randoms. The reconstructed image space consisted of cubic voxels, each 1.22 mm^3 in size, and spanning dimensions of 31 cm × 31 cm (transaxially) and 25 cm (axially).
The image analysis and kinetic modeling were performed using software PMOD (v3.7, PMOD Technologies Ltd, Zurich, Switzerland). Dynamic PET images were first co-registered with the MRI images. […]

[5] = Radiometabolite analysis of baboon blood; assay type: in vivo, Papio anubis baboon; conditions: 90 min post injection
Description: (75%) at 90 min post injection.
Samples were centrifuged at 1200×g and the radioactivity in plasma were measured with a cross-calibrated gamma counter. Selected plasma samples (5, 10, 20, 30, 60, and 90 min) were analyzed with high performance liquid chromatography (HPLC) for radioactive metabolites in plasma as described above.

[6] = Radiochemical purity of formulated [^11C]1 after end-of-synthesis by analytical HPLC; assay type: physicochemical; conditions: within 90 min after the end-of-synthesis
Description: To a 1 mL V-vial, precursor, 4-cyano-N-(2-(4-methylpiperidin-1-yl)-4-(piperazin-1-yl)phenyl)-1H-pyrrole-2-carboxamide, 8 (1 mg) was added in solution of 0.2 mL of anhydrous DMF. [^11C]Methyl iodide, carried by a stream of helium, was trapped in the precursor solution. The reaction was heated at 80 °C for 3.5 min, then quenched with 0.2 mL of water. The crude reaction product was purified by reverse-phase high performance liquid chromatography (HPLC) at a flow rate of 12 mL/min. The radiolabelled product [^11C]1 (tR = 7–8 min) was fully separated from the precursor (tR = 2.7 min) and collected in a solution of 0.3 g sodium ascorbate in 50 mL water. The aqueous solution was transferred through an activated Waters Oasis Sep-Pak Light cartridge (Milford, MA). After washing the cartridge with 10 mL saline, the product was eluted with 1 mL of ethanol through a […] sterile filter into a sterile, pyrogen-free vial containing 4 mL saline, and 10 mL of 0.9% saline was added through the same filter. The final product, [^11C]1, was analyzed by analytical HPLC to determine the radiochemical purity (> 99%) and specific radioactivity (15–23 Ci/µmol).
HPLC conditions for [^11C]1. Preparative HPLC: Column, XBridge C18, 10 × 250 mm (Waters, Milford, MA). Mobile phase: 39%:61% acetonitrile: triethylamine-phosphate buffer, pH 7.2. Flow rate: 12 mL/min, retention time 8 min. […]

[7] = parameters: method as in PMID 30635412; conditions: baboon brain, baseline PET; cited from earlier work
[8] = parameters: method as in PMID 30635412; conditions: baboon blood, 90 min post injection; cited from earlier work

SMILES: CN1CCN(c2ccc(NC(=O)c3ccc(C#N)o3)c(N3CCCCC3)c2)CC1 [CPPC, 5-cyano-N-(4-(4-methylpiperazin-1-yl)-2-(piperidin-1-yl)phenyl)furan-2-carboxamide, reference compound]
Effect of blocking on [^11C]1 brain uptake (SUVR) (CSF1R [1]; CPPC 1 mg/kg IP 5 min before [^11C]1, LPS-treated mice): significantly decreased the uptake in the LPS-treated mice to the control level

Regional brain uptake ([3]; brain stem, 2 min): 1.78 ± 0.48 %ID/g tissue
Regional brain uptake ([3]; brain stem, 30 min): 1.32 ± 0.10 %ID/g tissue
Regional brain uptake ([3]; brain stem, 60 min): 0.92 ± 0.11 %ID/g tissue
Regional brain uptake ([3]; cerebellum, 2 min): 2.08 ± 0.39 %ID/g tissue
Regional brain uptake ([3]; cerebellum, 30 min): 1.39 ± 0.04 %ID/g tissue
Regional brain uptake ([3]; cerebellum, 60 min): 0.95 ± 0.09 %ID/g tissue
Regional brain uptake ([3]; frontal cortex, 30 min): 1.49 ± 0.17 %ID/g tissue
Regional brain uptake ([3]; frontal cortex, 60 min): 1.13 ± 0.08 %ID/g tissue
Regional brain uptake ([3]; hippocampus, 2 min): 1.63 ± 0.31 %ID/g tissue
Regional brain uptake ([3]; hippocampus, 30 min): 1.32 ± 0.10 %ID/g tissue
Regional brain uptake ([3]; hippocampus, 60 min): 1.01 ± 0.17 %ID/g tissue
Regional brain uptake ([3]; rest of brain, 2 min): 1.81 ± 0.34 %ID/g tissue
Regional brain uptake ([3]; rest of brain, 30 min): 1.31 ± 0.10 %ID/g tissue
Regional brain uptake ([3]; rest of brain, 60 min): 0.90 ± 0.06 %ID/g tissue
Total mouse brain uptake ([3]; total mouse brain): ~ 2 % ID/g tissue
Specific CSF1R binding (share of brain uptake) (CSF1R [1]; LPS-treated mice, brain): ~ 50% and 50%
Peak brain uptake [4]: 0.36 SUV
Metabolism rate [5]: 16%
Change of radiochemical purity of final product [6]: did not change
SMILES: CC1CCN(c2cc(N3CCN([11CH3])CC3)ccc2NC(=O)c2cc(C#N)c[nH]2)CC1 [[^11C]1, 4-cyano-N-(4-(4-[^11CH3]methylpiperazin-1-yl)-2-(4-methylpiperidin-1-yl)phenyl)-1H-pyrrole-2-carboxamide]
Regional brain uptake ([3]; frontal cortex, 2 min after injection): 2.15 %ID/g tissue and 2.15 ± 0.44 %ID/g tissue
SUVR (SUV whole brain/SUV blood) in LPS-treated mice versus controls (CSF1R [1]; whole brain, 40 min after injection, n = 6): significantly greater in LPS-treated mice than in controls

SMILES: [11CH3]N1CCN(c2ccc(NC(=O)c3ccc(C#N)o3)c(N3CCCCC3)c2)CC1 [[^11C]CPPC]
Brain uptake [7]: 3.5 SUV
Metabolism rate [8]: 75%
